Measured values from publication PMC6587524 (Journal of Clinical Pharmacology, 2018).
Read-outs that look alike come from different tables or passages of the source. Each block holds one compound with its values, some of them ahead of it.

Legend:
[1] = format: in vivo, healthy female subjects; set-up: AUC0-t, Central Value, Test / AUC0-t, Central Value, Reference / AUCinf, Central Value, Test / AUCinf, Central Value, Reference: unit not given beside the values; conditions: for Bioequivalence in the presence and absence of upadacitinib: 90% CIs of Cmax and AUC ratios within 0.8 to 1.25; for Tmax: median (minimum to maximum); for AUC(0-inf): AUCinf; for half-life: t1/2 (terminal half-life), harmonic mean (pseudo-standard deviation)
[2] = Safety assessment during the study; format: in vivo, healthy female subjects; conditions: period 2
[3] = cited from earlier work
cytochrome P450 (CYP) 3A = conditions: coadministration following multiple doses of ketoconazole; cited from earlier work
JAK1 = conditions: cited from earlier work
other JAK isoforms = conditions: relative to JAK1; cited from earlier work
[4] = ethinylestradiol/levonorgestrel 0.03/0.15 mg alone, period 1 day 1, N = 22, mean ± SD
[5] = ethinylestradiol/levonorgestrel 0.03/0.15 mg with upadacitinib 30 mg QD, period 2, N = 20, mean ± SD
[6] = ethinylestradiol/levonorgestrel 0.03/0.15 mg with upadacitinib 30 mg QD, period 2, N = 20
[7] = period 1, day 1 (oral contraceptive alone), repeated measures analysis
[8] = period 2, day 12 (with upadacitinib 30 mg QD), repeated measures analysis

- Bioequivalence in the presence and absence of upadacitinib [1]: bioequivalent
- AUC(0-t) [1, 4]: 43.0 ± 18.4 ng·h/mL
- AUCinf [1, 4]: 51.7 ± 22.0 ng·h/mL
- Cmax [1, 4]: 3.9 ± 1.4 ng/mL
- Tmax ([1]; ethinylestradiol/levonorgestrel 0.03/0.15 mg alone, period 1 day 1, N = 22): 0.8 (0.5–2.0) h
- AUC(0-t) [1, 5]: 38.7 ± 12.1 ng·h/mL
- AUCinf [1, 5]: 49.5 ± 20.4 ng·h/mL
- Cmax [1, 5]: 3.7 ± 1.15 ng/mL
- Tmax [1, 6]: 0.8 (0.5–2.0) h
- AUC0-t, Central Value, Reference [1, 7]: 39.6
- AUCinf, Central Value, Reference [1, 7]: 47.6
- AUC0-t, Central Value, Test [1, 8]: 36.3
- AUCinf, Central Value, Test [1, 8]: 45.5
Compound: C#C[C@]1(O)CC[C@H]2[C@@H]3CCC4=CC(=O)CC[C@@H]4[C@H]3CC[C@@]21CC [Levonorgestrel]

- Bioequivalence in the presence and absence of upadacitinib [1]: bioequivalent
- Tmax [1, 6]: 1.5 (1.0–3.0) h
- AUC(0-t) ([1]; female, human, plasma, po, AUC0-t, Central Value, Test, period 2, day 12 (with upadacitinib 30 mg QD), repeated measures analysis): 0.39 ng·h/mL
- AUC(0-t) ([1]; female, human, plasma, po, AUC0-t, ethinylestradiol/levonorgestrel 0.03/0.15 mg alone, period 1 day 1, N = 22, mean ± SD): 0.378 ± 0.154 ng·h/mL
- AUC(0-t) ([1]; female, human, plasma, po, AUC0-t, ethinylestradiol/levonorgestrel 0.03/0.15 mg with upadacitinib 30 mg QD, period 2, N = 20, mean ± SD): 0.426 ± 0.137 ng·h/mL
- AUC(0-inf) ([1]; female, human, plasma, po, Central Value, Test, period 2, day 12 (with upadacitinib 30 mg QD), repeated measures analysis): 0.445 ng·h/mL
- AUC(0-inf) ([1]; female, human, plasma, po, ethinylestradiol/levonorgestrel 0.03/0.15 mg alone, period 1 day 1, N = 22, mean ± SD): 0.441 ± 0.193 ng·h/mL
- half-life ([1]; female, human, plasma, po, ethinylestradiol/levonorgestrel 0.03/0.15 mg alone, period 1 day 1, N = 22): 7 h
- half-life ([1]; female, human, plasma, po, ethinylestradiol/levonorgestrel 0.03/0.15 mg with upadacitinib 30 mg QD, period 2, N = 20): 7.7 h
Compound: C#C[C@]1(O)CC[C@H]2[C@@H]3CCc4cc(O)ccc4[C@H]3CC[C@@]21C [Ethinylestradiol]

- effect of upadacitinib on the exposures of ethinylestradiol or levonorgestrel ([1]; upadacitinib 30 mg QD repeated doses): no effect
Compound: CC[C@@H]1CN(C(=O)NCC(F)(F)F)C[C@@H]1c1cnc2cnc3[nH]ccc3n12 [Upadacitinib]
- relation of treatment-emergent adverse events to upadacitinib [2]: not considered to have a reasonable possibility of being related
- accumulation upon multiple QD dosing ([3]; extended-release formulation): No significant accumulation
- administered dose eliminated in urine and feces as unchanged upadacitinib ([3]; in vivo): > 60%
- time to steady state ([3]; multiple QD dosing, extended-release formulation): ≤ 4 days
- increase in upadacitinib AUC (cytochrome P450 (CYP) 3A): 75%
- increase in upadacitinib Cmax (cytochrome P450 (CYP) 3A): 70%
- JAK1 inhibition (JAK1): potently inhibits JAK1
- potency against the other JAK isoforms (other JAK isoforms): less potent
